Source: patent US20210030700A1, “COMPOSITION FOR PREVENTING AND TREATMENT OF SPINAL CORD INJURY” (NEUROBIOGEN CO.,LTD, priority 2018, published 2021)

Tests used:
Type in all cases: in vivo, Sprague-Dawley rats
[1] = test system: spinal cord-injured rats and normal rats; assay: Basso-Beattie-Bresnahan (BBB) locomotor rating behavior test
Procedure: (§1) The animal models of spinal cord injury herein used were adult male Sprague-Dawley rats weighing 180 to 200 g, and the rats were anesthetized by intraperitoneal injection of ketamine. Laminectomy was conducted on the T9 portion to expose the spinal cord, the spinal cord was compressed for 10 seconds using a dedicated forceps (self-closed forceps, Germany) to induce spinal cord injury, and then the muscles and skin were sutured.
(§2) Of the 50 spinal cord injury animal models in total, 5 were a non-drug-administered control group (Normal), 5 were a drug-administered control group (Normal/KDS2010), 20 were a non-drug-administered group subjected to spinal cord injury (SCI), and 20 were a drug-administered group subjected to spinal cord injury (SCI/KDS2010). 2 weeks after induction of spinal cord injury, a mixture of the drug and drinking water was administered at a dose of 10 mg/kg.
A motor function test was performed 10 times in total weekly for 10 weeks after spinal cord injury, and the recovery of hindlimb function in the animals was evaluated using the Basso-Beattie-Bresnahan (BBB) motor score. The BBB score is divided into 21 points in total, and is broadly classified into 3 steps. In the first recovery phase, the degree of the joint movement and whether or not the soles contact the floor was checked, in the second recovery phase, the degree of recovery of weighted gait was monitored, and in the final stage, the balance of the gait and the recovery of the tail were mainly observed. The neuropathic pain response test upon spinal cord injury was conducted through the measurement of a change in mechanical paw withdrawal using a dynamic plantar aesthesiometer and was conducted weekly for 3 weeks after the injury causing response to the soles. This test was conducted by applying a force of 0 to 50 g to the sole of the paw of the hindlimb using a needle with a diameter of 0.5 mm for 20 seconds. At this time, the force applied when the sole withdrawal occurred due to pain was measured.
A behavior test was performed using a Basso-Beattie-Bresnahan (BBB) locomotor rating system after administration of KDS2010 to spinal-cord-injured rats and normal rats in the same manner as in Example 1-3 above. The result of the behavior test was expressed as a BBB score.

[2] = test system: spinal cord-injured rats and normal rats; assay: Pain response evaluation using a dynamic plantar test
Procedure: as §1, with “sutured. […]” for “sutured.”
A motor function test was performed 10 times in total weekly for 10 weeks after spinal cord injury, and the recovery of hindlimb function in the animals was evaluated using the Basso-Beattie-Bresnahan (BBB) motor score. […] In the first recovery phase, the degree of the joint movement and whether or not the soles contact the floor was checked, in the second recovery phase, the degree of recovery of weighted gait was monitored, and in the final stage, the balance of the gait and the recovery of the tail were mainly observed. […] At this time, the force applied when the sole withdrawal occurred due to pain was measured.
A pain relief degree was measured using a pain response evaluation based on a dynamic plantar test after administration of KDS2010 to spinal-cord-injured rats and normal rats in the same manner as in Example 1-3 above.

[3] = test system: spinal cord-injured rats and normal rats; assay: EC staining of the injured area (T9), myelination of spinal cord tissue
Procedure: as §1, §2
For EC staining (Eriochrome (Solochrome) cyanine staining), spinal cord tissue was obtained at 10 weeks after spinal cord injury, fixed with 4% paraformaldehyde, and dehydrated to perform freeze embedding. EC staining was performed on the injured area (thoracic vertebrae #9, T9) in 5 rats for the control group, 10 rats for the spinal cord-injured non-drug-administered group and 10 rats for the spinal cord-injured drug-administered group.
The EC staining is a staining method that can compare the areas of tissue and the myelinated part between groups because the myelinated part is stained in blue, whereas other nuclei, nerves, and non-myelinated parts appear in white.
EC staining was conducted on the injured area (thoracic vertebrae #9, T9) of the non-drug-administered control group, the drug-administered control group, the spinal cord-injured non-drug-administered group and the spinal cord-injured drug-administered group, in the same manner as in Example 1-4, and the results of myelinated parts were quantified.

[4] = test system: spinal cord injury model; assay: Toluidine blue (TB) staining and TEM imaging, re-myelination of spinal cord injury site; details: spinal cord injury model treated with KDS2010
Procedure: as §1
Specifically, the number of […], the number of cavities and a g-ratio were measured through toluidine blue (TB) staining and TEM imaging.

[5] = test system: spinal cord injury model; assay: BrdU immunofluorescence staining of spinal nerves, formation of new nerve cells; details: spinal cord injury model treated with KDS2010; BrdU 50 mg/kg/day i.p.
Procedure: as §1
A test to determine whether or not treatment with KDS2010 has an effect of inducing differentiation of new nerve cells was conducted in order to investigate the effect of spinal cord regeneration.
Specifically, BrdU was administered at a dose of 50 mg/kg/day to test animals by i.p. injection one week before scarification, and spinal nerves were subjected to immunofluorescence staining and then observed.

[6] = test system: spinal cord injury model; assay: Immunofluorescence staining for macrophage marker CD68 and microglia marker Ibal; details: KDS2010-administered spinal cord injury model group
Procedure: as §1
When a spinal cord injury occurs, destroyed cells and cell clusters were observed inward from the injured site. These cells may cause an inflammatory reaction and interfere with regeneration from spinal cord injury. A test was conducted to investigate the effect of the drug KDS2010 on inflammatory reaction.
Specifically, the spinal cord injury model administered with KDS2010 was subjected to immunofluorescence staining to determine whether or not the cells were positive for the macrophage marker CD68 and the microglia marker Ibal.

[7] = SCI/KDS2010 vs SCI, 10 weeks after injury
[8] = drug-administered control group (Control/KDS2010), 10 weeks

SMILES: C[C@H](NCc1ccc(-c2ccc(C(F)(F)F)cc2)cc1)C(N)=O [KDS2010, (S)-2-(((4′-trifluoromethylbiphenyl-4-yl)methyl)amino)propanamide methanesulfonate]
- gait and behavioral function in BBB test ([1]; SCI/KDS2010, last week (10 weeks after injury)): balanced gait and restored behavioral function
- BBB score compared to spinal cord-injured group not administered with the drug ([1]; SCI/KDS2010 vs SCI): significantly improved
- BBB score ([1]; drug-administered control group (Normal/KDS2010), normal rats, 10 mg/kg in drinking water): 21 points
- BBB score ([1]; spinal cord-injured drug-administered group (SCI/KDS2010), 10 mg/kg in drinking water from 2 weeks after injury, starting at 5 weeks): ≥ 10 points
- threshold value for pain compared to spinal cord-injured non-drug-administered group ([2]; SCI/KDS2010 vs SCI): significantly increased
- threshold value for pain ([2]; drug-administered control group (Normal/KDS2010), normal rats): high threshold value
- total myelinated area compared to spinal cord-injured non-drug-administered group [3, 7]: increased
- total tissue area compared to spinal cord-injured non-drug-administered group [3, 7]: increased
- proportion of the total myelinated area to the total tissue area [3, 8]: large
- total myelinated area [3, 8]: large
- total tissue area [3, 8]: large
- number of cavities [4]: rapidly decreased
- number of myelinated exons [4]: recovered to an almost normal value
- g-ratio ([4]; normal range 0.79±0.0005): within the normal range
- formation of new nerve cells [5]: exhibited newly formed nerve cells
- number of cells positive to CD68 [6]: significantly decreased
- number of cells positive to Ibal [6]: significantly decreased
